Measured values reported in PubChem BioAssay AID1259411 (Chemical Carcinogenesis Research Information System (CCRIS), 2018).
Active and inactive are the calls of the source. The rule behind the calls is not given here.

System: rodent carcinogenicity bioassays, tumor incidence
Test: CCRIS carcinogenicity studies
Outline: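 Archive of carcinogenicity, mutagenicity, tumor promotion and tumor inhibition results drawn from journals, NCI reports and other sources, expert-reviewed; covers 1985-2011 and is no longer updated.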

CC(C)n1c(/C=C/[C@H](O)C[C@H](O)CC(=O)O)c(-c2ccc(F)cc2)c2ccccc21
carcinogen call (Species: MOUSE, Strain/Sex: CD-1/FEMALE (70/GROUP), Route: ORAL (GAVAGE), Dose: 0, 0.3, 15, 30 MG/KG/D IN 1% CARBOXYMETHYLCELLULOSE FOR 85 WK, Dose: 0, 0.3, 15, 30 MG/KG/D IN 1% CARBOXYMETHYLCELLULOSE FOR 85 WK, Tumor Site: Type of Lesion: FORESTOMACH: SQUAMOUS PAPILLOMAS): active; positive
carcinogen call (Species: MOUSE, Strain/Sex: CD-1/FEMALE (80/GROUP), Route: ORAL (GAVAGE), Dose: 0, 50, 150, 350 MG/KG/D IN 1% CARBOXYMETHYLCELLULOSE FOR 93 WK, Dose: 0, 50, 150, 350 MG/KG/D IN 1% CARBOXYMETHYLCELLULOSE FOR 93 WK): inactive; negative
carcinogen call (Species: MOUSE, Strain/Sex: CD-1/FEMALE, Route: GAVAGE, Dose: 0, 0.3, 15, 30 MG/KG/D FOR 52 OR 85 WK (STUDY DURATION: 86 WK), Dose: 0, 0.3, 15, 30 MG/KG/D FOR 52 OR 85 WK (STUDY DURATION: 86 WK), Tumor Site: Type of Lesion: FORESTOMACH: PAPILLOMA): active; positive
carcinogen call (Species: MOUSE, Strain/Sex: CD-1/FEMALE, Route: GAVAGE, Dose: 0, 50, 150, 350 MG/KG/D FOR 52 OR 84 WK (HIGH DOSE GROUP TERMINATED IN WK 23) (STUDY DURATION: 93 WK), Dose: 0, 50, 150, 350 MG/KG/D FOR 52 OR 84 WK (HIGH DOSE GROUP TERMINATED IN WK 23) (STUDY DURATION: 93 WK)): inactive; negative
carcinogen call (Species: MOUSE, Strain/Sex: CD-1/MALE (70/GROUP), Route: ORAL (GAVAGE), Dose: 0, 0.3, 15, 30 MG/KG/D IN 1% CARBOXYMETHYLCELLULOSE FOR 85 WK, Dose: 0, 0.3, 15, 30 MG/KG/D IN 1% CARBOXYMETHYLCELLULOSE FOR 85 WK): inactive; negative
carcinogen call (Species: MOUSE, Strain/Sex: CD-1/MALE (80/GROUP), Route: ORAL (GAVAGE), Dose: 0, 50, 150, 350 MG/KG/D IN 1% CARBOXYMETHYLCELLULOSE FOR 84 WK, Dose: 0, 50, 150, 350 MG/KG/D IN 1% CARBOXYMETHYLCELLULOSE FOR 84 WK): inactive; negative
carcinogen call (Species: MOUSE, Strain/Sex: CD-1/MALE, Route: GAVAGE, Dose: 0, 0.3, 15, 30 MG/KG/D FOR 52 OR 85 WK (STUDY DURATION: 86 WK), Dose: 0, 0.3, 15, 30 MG/KG/D FOR 52 OR 85 WK (STUDY DURATION: 86 WK)): inactive; negative
carcinogen call (Species: MOUSE, Strain/Sex: CD-1/MALE, Route: GAVAGE, Dose: 0, 50, 150, 350 MG/KG/D FOR 52 OR 84 WK (HIGH DOSE GROUP TERMINATED IN WK 23) (STUDY DURATION: 84 WK), Dose: 0, 50, 150, 350 MG/KG/D FOR 52 OR 84 WK (HIGH DOSE GROUP TERMINATED IN WK 23) (STUDY DURATION: 84 WK)): inactive; negative
carcinogen call (Species: RAT, Strain/Sex: CD (SPRAGUE-DAWLEY)/FEMALE (75/GROUP), Route: ORAL (GAVAGE), Dose: 0, 0.03, 0.3, 3 MG/KG/D IN 1% CARBOXYMETHYLCELLULOSE FOR 101 WKS, Dose: 0, 0.03, 0.3, 3 MG/KG/D IN 1% CARBOXYMETHYLCELLULOSE FOR 101 WKS): inactive; negative
carcinogen call (Species: RAT, Strain/Sex: CD (SPRAGUE-DAWLEY)/FEMALE (75/GROUP), Route: ORAL (GAVAGE), Dose: 0, 6, 9, 18-24 MG/KG/D IN 1% CARBOXYMETHYLCELLULOSE FOR 104 WKS, Dose: 0, 6, 9, 18-24 MG/KG/D IN 1% CARBOXYMETHYLCELLULOSE FOR 104 WKS): inactive; negative
carcinogen call (Species: RAT, Strain/Sex: CD (SPRAGUE-DAWLEY)/MALE (75/GROUP), Route: ORAL (GAVAGE), Dose: 0, 0.03, 0.3, 3 MG/KG/D IN 1% CARBOXYMETHYLCELLULOSE FOR 95 WKS, Dose: 0, 0.03, 0.3, 3 MG/KG/D IN 1% CARBOXYMETHYLCELLULOSE FOR 95 WKS): inactive; negative
carcinogen call (Species: RAT, Strain/Sex: CD (SPRAGUE-DAWLEY)/MALE (75/GROUP), Route: ORAL (GAVAGE), Dose: 0, 6, 9, 18-24 MG/KG/D IN 1% CARBOXYMETHYLCELLULOSE FOR 104 WKS, Dose: 0, 6, 9, 18-24 MG/KG/D IN 1% CARBOXYMETHYLCELLULOSE FOR 104 WKS, Tumor Site: Type of Lesion: THYROID: FOLLICULAR ADENOMA (11/75)): active; positive
carcinogen call (Species: RAT, Strain/Sex: STRAIN-CD/FEMALE, Route: GAVAGE, Dose: 0, 0.03, 0.3, 3 MG/KG/D FOR 95 WK (STUDY DURATION: 114 WK), Dose: 0, 0.03, 0.3, 3 MG/KG/D FOR 95 WK (STUDY DURATION: 114 WK)): inactive; negative
carcinogen call (Species: RAT, Strain/Sex: STRAIN-CD/FEMALE, Route: GAVAGE, Dose: 0, 6, 9, 18-24 MG/KG/D FOR 104 WK (STUDY DURATION: 104 WK), Dose: 0, 6, 9, 18-24 MG/KG/D FOR 104 WK (STUDY DURATION: 104 WK)): inactive; negative
carcinogen call (Species: RAT, Strain/Sex: STRAIN-CD/MALE, Route: GAVAGE, Dose: 0, 0.03, 0.3, 3 MG/KG/D FOR 95 WK (STUDY DURATION: 114 WK), Dose: 0, 0.03, 0.3, 3 MG/KG/D FOR 95 WK (STUDY DURATION: 114 WK)): inactive; negative
carcinogen call (Species: RAT, Strain/Sex: STRAIN-CD/MALE, Route: GAVAGE, Dose: 0, 6, 9, 18-24 MG/KG/D FOR 104 WK (STUDY DURATION: 104 WK), Dose: 0, 6, 9, 18-24 MG/KG/D FOR 104 WK (STUDY DURATION: 104 WK)): inactive; negative

C[C@@H]1C[C@H](C)CN(S(=O)(=O)c2ccc(Cl)c(C(=O)O)c2)C1
carcinogen call (Species: RAT, Strain/Sex: F344/MALE, Route: ORAL, Dose: 0.2% IN DIET FOR 7.5 MO, THEN 0.1% FOR 4 MO, THEN 0.05% FOR 4 MO, Tumor Site: Type of Lesion: LIVER: HEPATOCELLULAR CARCINOMA): active; positive

C=CCO
carcinogen call (Species: HAMSTER, Strain/Sex: SYRIAN/MALE, Route: GAVAGE, Dose: 0, 2 MG/WK FOR 60 WK (STUDY DURATION: 92 WK)): inactive; negative
carcinogen call (Species: RAT, Strain/Sex: F344/FEMALE, Route: ORAL, Dose: 0, 300 MG/L IN DRINKING WATER 5 D/WK FOR 100 WK (STUDY DURATION: 130 WK)): inactive; negative
carcinogen call (Species: RAT, Strain/Sex: F344/MALE, Route: ORAL, Dose: 0, 300 MG/L IN DRINKING WATER 5 D/WK FOR 100 WK (STUDY DURATION: 130 WK)): inactive; negative

ClC(Cl)c1ccccc1
carcinogen call (Species: RAT, Strain/Sex: F344/FEMALE, Route: ORAL, Dose: 0, 0.1, 0.5, 2% IN FEED FOR 104 WK (STUDY DURATION: 104 WK), Dose: 0, 0.1, 0.5, 2% IN FEED FOR 104 WK (STUDY DURATION: 104 WK)): inactive; negative
carcinogen call (Species: RAT, Strain/Sex: F344/MALE, Route: ORAL, Dose: 0, 0.1, 0.5, 2% IN FEED FOR 104 WK (STUDY DURATION: 104 WK), Dose: 0, 0.1, 0.5, 2% IN FEED FOR 104 WK (STUDY DURATION: 104 WK)): inactive; negative

COc1cc(/C=C/C(=O)CC(=O)/C=C/c2ccc(O)c(OC)c2)ccc1O
carcinogen call (Species: MOUSE, Strain/Sex: B6C3F1/FEMALE, Route: ORAL, Dose: 0, 2000, 10000, 50000 PPM IN FEED FOR 104 WK (STUDY DURATION: 104 WK), Dose: 0, 2000, 10000, 50000 PPM IN FEED FOR 104 WK (STUDY DURATION: 104 WK), Tumor Site: Type of Lesion: LIVER: HEPATOCELLULAR ADENOMA, HEPATOCELLULAR ADENOMA OR CARCINOMA): equivocal
carcinogen call (Species: MOUSE, Strain/Sex: B6C3F1/MALE, Route: ORAL, Dose: 0, 2000, 10000, 50000 PPM IN FEED FOR 104 WK (STUDY DURATION: 104 WK), Dose: 0, 2000, 10000, 50000 PPM IN FEED FOR 104 WK (STUDY DURATION: 104 WK), Tumor Site: Type of Lesion: LIVER: HEPATOCELLULAR ADENOMA, HEPATOCELLULAR ADENOMA OR CARCINOMA, SMALL INTESTINE: CARCINOMA): equivocal
carcinogen call (Species: RAT, Strain/Sex: F344/FEMALE, Route: ORAL, Dose: 0, 2000, 10000, 50000 PPM IN FEED FOR 104 WK (STUDY DURATION: 104 WK), Dose: 0, 2000, 10000, 50000 PPM IN FEED FOR 104 WK (STUDY DURATION: 104 WK), Tumor Site: Type of Lesion: CLITORAL GLAND: ADENOMA, ADENOMA OR CARCINOMA): equivocal
carcinogen call (Species: RAT, Strain/Sex: F344/MALE, Route: ORAL, Dose: 0, 2000, 10000, 50000 PPM IN FEED FOR 104 WK (STUDY DURATION: 104 WK), Dose: 0, 2000, 10000, 50000 PPM IN FEED FOR 104 WK (STUDY DURATION: 104 WK)): inactive; negative

COP(=O)(NC(C)=O)SC (stereo not drawn)
carcinogen call (Species: Mouse, Strain/Sex: CD-1/Female, Route: Oral, Dose: 0, 50, 250, 1000 ppm (0; 8; 42; 167 mg/kg/d) in feed for 104 wk, Dose: 0, 50, 250, 1000 ppm (0; 8; 42; 167 mg/kg/d) in feed for 104 wk, Tumor Site: Type of Lesion: Liver: Hepatocellular carcinoma and adenoma (highest dose only)): inactive; negative; purity = 92.7, 92.1%
carcinogen call (Species: Mouse, Strain/Sex: CD-1/Male, Route: Oral, Dose: 0, 50, 250, 1000 ppm (0; 7; 36; 146 mg/kg/d) in feed for 104 wk, Dose: 0, 50, 250, 1000 ppm (0; 7; 36; 146 mg/kg/d) in feed for 104 wk): inactive; negative; purity = 92.7, 92.1%
